Reference: US6166013A, “Glucocortiocoid-selective agents” (Abbott Laboratories, priority 1999, dated 2000)
Where two headings read alike, the source gives them in different places.

What was measured:
[1] = biological target: T1, human estrogen receptor-alpha (Homo sapiens, UniProt P03372); test: soluble estrogen receptor-alpha (ER-α) binding assay, [3H]-estradiol
T1 construct: made in house; host or cells: yeast strain BJ2168 (copper induced)
T1 sequence (P03372 1-595): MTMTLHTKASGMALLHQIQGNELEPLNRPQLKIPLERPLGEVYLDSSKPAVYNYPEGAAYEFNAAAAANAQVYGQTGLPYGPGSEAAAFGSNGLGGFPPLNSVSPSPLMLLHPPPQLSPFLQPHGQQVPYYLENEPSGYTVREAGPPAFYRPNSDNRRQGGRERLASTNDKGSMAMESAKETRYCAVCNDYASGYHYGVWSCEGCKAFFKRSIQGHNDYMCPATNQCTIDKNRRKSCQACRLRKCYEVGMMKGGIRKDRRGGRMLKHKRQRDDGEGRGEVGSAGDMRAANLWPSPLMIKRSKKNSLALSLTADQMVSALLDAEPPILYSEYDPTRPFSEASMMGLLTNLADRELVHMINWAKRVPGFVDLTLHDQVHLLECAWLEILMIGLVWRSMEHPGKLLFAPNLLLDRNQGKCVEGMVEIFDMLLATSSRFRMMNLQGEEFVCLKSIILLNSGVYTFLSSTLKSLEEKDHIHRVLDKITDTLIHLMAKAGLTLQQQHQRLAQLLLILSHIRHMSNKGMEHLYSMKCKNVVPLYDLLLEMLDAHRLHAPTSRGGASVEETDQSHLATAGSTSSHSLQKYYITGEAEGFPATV
Excerpt: For soluble estrogen receptor-alpha (ER-α) binding assays, [^3 H]- Estradiol (120-140 Ci/mmol) was purchased from New England Nuclear (Boston, Mass.), 17-beta estradiol was purchased from Sigma Chemical Co. (St. Louis, Mo.), CHAPS and DTT were purchased from Boehringer Mannheim GmbH (W. Germany) and all other reagents were purchased from Sigma.
The human estrogen receptor-alpha cDNA was cloned into a yeast vector termed pYhERα and used to transform wild type yeast strain BJ2168 following the protocol outlined by Pham, T. A., Hwung Y. P., Santiso-Mere,D., McDonnell D. P., O'Malley, B. W., Ligand-Dependent and Independent Function of the Transactivation Regions of the Human Estrogen Receptor in Yeast, Mol. Endocrinol. […] The yeast was induced with copper for 16 hours after which the cells were harvested, washed and the receptor extract prepared in cold buffer via a Bead Beater (BioSpec Products, Bartlesville, Okla.). Aliquots of the receptor typically contained 5-10 mg/ml of total protein and were stored at -80° C. until used. Estradiol or other competing compounds were prepared as 5 mM stock solutions in either 100% ethanol or DMSO and serial dilutions were carried out in 1:1 DMSO-ethanol. The assay buffer consisted of the following: 300 mM potassium chloride, 10 mM Trizma Base, 2 mM DTT and 5 mM CHAPS, pH=7.5 at room temperature.
Assays were set up using a 96-well minitube system and incubations were carried out at 4° C. for 18 hours. Equilibrium under these conditions of buffer and temperature was achieved by 6-8 hours. Nonspecific binding was defined as that binding remaining in the presence of 1000 nM unlabeled estradiol. […] The amount of receptor-ligand complex was determined by liquid scintillation counting of the hydroxyapatite pellet after the addition of […] EcoScint A scintillation cocktail from National Diagnostics (Atlanta, Ga.).
After correcting for nonspecific binding, IC50 values were determined. […] The IC50 values were determined graphically from a log-logit plot of the data.

[2] = biological target: T2, human glucocorticoid receptor-α [GRX] isoform (Homo sapiens, UniProt P04150); test: glucocorticoid receptor (GR) cytosol binding assay, [3H]-dexamethasone; details: displacement of [3H]-Dex (~0.9 nM), 4° C. overnight
T2 construct: purchased Ligand Pharmaceuticals (San Diego, Calif.); host or cells: insect SF21 cells (baculovirus)
T2 sequence (P04150 1-777): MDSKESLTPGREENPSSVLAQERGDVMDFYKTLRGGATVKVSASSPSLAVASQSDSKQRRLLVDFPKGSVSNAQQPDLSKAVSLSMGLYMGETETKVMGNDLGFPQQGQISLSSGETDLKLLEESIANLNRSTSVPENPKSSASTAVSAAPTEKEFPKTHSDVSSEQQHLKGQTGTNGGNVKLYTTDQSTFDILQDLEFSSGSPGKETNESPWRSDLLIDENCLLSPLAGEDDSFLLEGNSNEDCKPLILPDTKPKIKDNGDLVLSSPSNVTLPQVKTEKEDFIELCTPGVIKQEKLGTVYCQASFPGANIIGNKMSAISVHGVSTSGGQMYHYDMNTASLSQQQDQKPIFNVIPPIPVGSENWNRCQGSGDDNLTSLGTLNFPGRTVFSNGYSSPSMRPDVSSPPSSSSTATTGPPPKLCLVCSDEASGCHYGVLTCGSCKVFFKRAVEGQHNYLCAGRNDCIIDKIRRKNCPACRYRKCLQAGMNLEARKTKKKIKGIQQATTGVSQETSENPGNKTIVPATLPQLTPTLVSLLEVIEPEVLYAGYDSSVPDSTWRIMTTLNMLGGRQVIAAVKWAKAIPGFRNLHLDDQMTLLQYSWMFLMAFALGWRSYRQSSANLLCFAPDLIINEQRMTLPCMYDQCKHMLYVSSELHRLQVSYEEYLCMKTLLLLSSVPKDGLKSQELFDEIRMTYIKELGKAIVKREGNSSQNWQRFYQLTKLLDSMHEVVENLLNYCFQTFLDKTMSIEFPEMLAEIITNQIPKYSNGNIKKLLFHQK
Excerpt: Briefly, cytosol preparations of human glucocorticoid receptor-α [GRX] isoform and human progesterone receptor-A [PRA] isoform were obtained from Ligand Pharmaceuticals (San Diego, Calif.). Both receptor cDNAs were cloned into baculovirus expression vectors and expressed in insect SF21 cells. [^3 H]-dexamethasone (Dex, specific activity 82-86 Ci/mmole) and [^3 H]-progesterone (Prog, specific activity 97-102 Ci/mmol) were purchased from Amersham Life Sciences (Arlington Heights, Ill.). Glass fiber type C multiscreen MAFC NOB plates were from Millipore (Burlington, Mass.). Hydroxyapatide Bio-Gel HTP gel was obtained from Bio-Rad Laboratories (Hercules, Calif.). Tris(hydroxymethyl)aminomethane (Tris), ethylenediaminetetraacetic acid (EDTA), glycerol, dithiothreitol (DTT) and sodium moylybdate were obtained from Sigma Chemicals (St. Louis, Mo.). […]
After an overnight incubation, 50 μL of hydroxyapatite (25% weight/volume) slurry were added to each well and plates were incubated for 10 min at 4° C. in a plate shaker. […] The amount of radioactivity was determined with a Packard TopCount plate reader.
The Ki of test compounds was determined using the Cheng-Prusoff equation Ki =IC50 /(1+[L*]/[KL ]) where L* is the concentration of radioligand and KL is the dissociation constant of the radioligand determined from saturation analysis.

[3] = displacement of [3H]-estradiol (2-3 nM), 4° C., 18 hours, read-out: Ki ER-α

| Structure (SMILES) | Ki [1, 3] [µM] | Ki [2] [µM] | further results |
| --- | --- | --- | --- |
| CN(C)c1ccc(C(c2ccc(N(C)C)cc2)c2cc(Cl)ccc2Cl)cc1 [Example 24, 4',4"bis(dimethylamino)-2,5-dichlorotriphenylmethane] | – | – | Ki [1]: > 10 µM |
| CC(=O)OCCN(C)c1ccc(C(c2ccc(N(C)CCOC(C)=O)cc2)c2cc([N+](=O)[O-])ccc2Cl)cc1 [Example 31, 4',4"bis(N-(2-acetoxyethyl) N-methylamino)-2-chloro-5-nitrotriphenylmethane] | > 10 | – | – |
| CN(CCO)c1ccc(C(c2ccc(N(C)CCO)cc2)c2cc([N+](=O)[O-])ccc2Cl)cc1 [Example 32, 4',4"bis(N-(2-hydroxyethyl) N-methylamino)-2-chloro-5-nitrotriphenylmethane] | > 10 | – | – |
| CN(C(=O)OC(C)(C)C)c1ccc(C(c2ccc(N(C)C(=O)OC(C)(C)C)cc2)c2cc([N+](=O)[O-])ccc2Cl)cc1 [Example 35, 4',4"bis(N-(t-butoxycarbonyl) N-methylamino)-2-chloro-5-nitrotriphenylmethane] | – | 4.56 | – |
| CN(C)c1ccc(C(c2ccc(N(C)C)cc2)c2cc(NC(=O)/C=C/c3ccc([N+](=O)[O-])cc3)ccc2Cl)cc1 [Example 61, 4',4"bis(dimethylamino)-2-chloro-5-(4-nitrocinnamido)triphenylmethane] | – | 4.6 | – |
